Where “and” joins values, the source holds several entries; their conditions need not be identical. Equal entries are not always repeated. Inconclusive results and toxic doses are left out.
System: P388 leukemia ip, CD2F1 mice, survival T/C
Test: NCI In Vivo Anticancer Drug Screen. Data for tumor model P388 Leukemia (intraperitoneal) in CD2F1 (CDF1) mice
Details: endpoint: median survival time, higher = longer survival
Summary of the method: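 Mice carrying the transplanted tumor received test compound or vehicle. Survival was recorded in each group, and the value is the treated-group measurement divided by that of the vehicle-treated control group.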

[1] = dose: 50.0 mg/kg/injection, schedule: Q01DX009 (ip), vehicle: saline with Tween-80
[2] = dose: 100.0 mg/kg/injection, schedule: Q01DX009 (ip), vehicle: saline with Tween-80
[3] = dose: 100.0 mg/kg/injection, schedule: Q01DX001 (ip), vehicle: saline with Tween-80
[4] = dose: 200.0 mg/kg/injection, schedule: Q01DX001 (ip), vehicle: saline with Tween-80
[5] = dose: 60.0 mg/kg/injection, schedule: Q01DX005 (ip), vehicle: saline with Tween-80
[6] = dose: 120.0 mg/kg/injection, schedule: Q01DX005 (ip), vehicle: saline with Tween-80
[7] = dose: 240.0 mg/kg/injection, schedule: Q01DX005 (ip), vehicle: saline with Tween-80
[8] = dose: 6.25 mg/kg/injection, schedule: Q01DX005 (ip), vehicle: Klucel (hydroxypropylcellulose) (HPC)
[9] = dose: 12.5 mg/kg/injection, schedule: Q01DX005 (ip), vehicle: Klucel (hydroxypropylcellulose) (HPC)
[10] = dose: 25.0 mg/kg/injection, schedule: Q01DX005 (ip), vehicle: Klucel (hydroxypropylcellulose) (HPC)

**Q.** Cc1ccc(N=Nc2c(O)n(-c3ccccc3C)c(=S)n(-c3ccc(Br)cc3)c2=O)cc1 was tested. Which T/C [1] did it give?
**A.** The T/C was 100 % of control.

**Q.** What about the T/C [2] of the same molecule?
**A.** Its T/C is 101 % of control.

**Q.** For C[C@]12CC[C@H](OC(=O)/C=C\c3ccccc3N(CCCl)CCCl)CC1CC[C@@H]1C2CC[C@]2(C)NC(=O)CCC12 (stereo partly drawn), which T/C [3] is on record?
**A.** The T/C was 105 % of control and 120 % of control.

**Q.** And the T/C [4]?
**A.** The T/C was 118 % of control.

**Q.** Which results are given for CCC(c1ccc(C(C)=O)c(O)c1)C(CC)c1ccc(C(C)=O)c(O)c1 (stereo not drawn)?
**A.** T/C [5]: 97 % of control; T/C [6]: 90 % of control; T/C [7]: 88 % of control

**Q.** How did the T/C [3] turn out when CCCCNC(=S)NNC(=O)CNC(c1ccc(OC)cc1)C(CC)c1ccc(OC)cc1 (stereo not drawn) was run?
**A.** Its T/C is 88 % of control.

**Q.** And the T/C [4]?
**A.** The T/C was 101 % of control.

**Q.** What does the source list for C=C1C(=O)OC2C1C(O)C(OC(=O)/C(C)=C/C)C(C)C1C(=O)C=C(C)C21 (stereo not drawn)?
**A.** T/C [8]: 107 % of control; T/C [9]: 114 % of control; T/C [10]: 115 % of control

**Q.** With CC(=O)CNc1ccccc1C(N)=O as the molecule, how does the T/C (dose: 50.0 mg/kg/injection, schedule: Q01DX005 (ip), vehicle: Klucel (hydroxypropylcellulose) (HPC)) read?
**A.** The T/C was 101 % of control.

**Q.** And the T/C (dose: 100.0 mg/kg/injection, schedule: Q01DX005 (ip), vehicle: Klucel (hydroxypropylcellulose) (HPC))?
**A.** The T/C was 95 % of control.

**Q.** What about the T/C (dose: 200.0 mg/kg/injection, schedule: Q01DX005 (ip), vehicle: Klucel (hydroxypropylcellulose) (HPC)) of the same molecule?
**A.** The T/C was 104 % of control.

**Q.** CCOP(=O)(OCC)C(C)OC (stereo not drawn) was tested. Which T/C (dose: 50.0 mg/kg/injection, schedule: Q01DX009 (ip), vehicle: saline) did it give?
**A.** Its T/C is 100 % of control.

**Q.** And the T/C (dose: 100.0 mg/kg/injection, schedule: Q01DX009 (ip), vehicle: saline)?
**A.** Its T/C is 100 % of control.

**Q.** What about the T/C (dose: 200.0 mg/kg/injection, schedule: Q01DX009 (ip), vehicle: saline) of the same molecule?
**A.** Its T/C is 106 % of control.

**Q.** What about the T/C (dose: 400.0 mg/kg/injection, schedule: Q01DX009 (ip), vehicle: saline) of the same molecule?
**A.** Its T/C is 100 % of control.

**Q.** CCOC(=O)c1sc2nc(C)[nH]c(=O)c2c1C was tested. Which T/C (dose: 50.0 mg/kg/injection, schedule: Q01DX005 (ip), vehicle: saline with Tween-80) did it give?
**A.** The T/C was 99 % of control.

**Q.** With CC1(CCl)CC1(Cl)Cl (stereo not drawn) as the molecule, how does the T/C (dose: 50.0 mg/kg/injection, schedule: Q01DX005 (ip), vehicle: saline) read?
**A.** The T/C was 103 % of control.

**Q.** And the T/C (dose: 100.0 mg/kg/injection, schedule: Q01DX005 (ip), vehicle: saline)?
**A.** The T/C was 103 % of control.

**Q.** And the T/C (dose: 200.0 mg/kg/injection, schedule: Q01DX005 (ip), vehicle: saline)?
**A.** Its T/C is 104 % of control.

**Q.** CC(=O)OC(=O)c1c(OC(C)=O)cc(C)c2c1CC(C1(C)CO1)CC2 (stereo not drawn) was tested. Which T/C (dose: 1.88 mg/kg/injection, schedule: Q01DX005 (ip), vehicle: Klucel (hydroxypropylcellulose) (HPC)) did it give?
**A.** The T/C was 100 % of control.

**Q.** What about the T/C (dose: 3.75 mg/kg/injection, schedule: Q01DX005 (ip), vehicle: Klucel (hydroxypropylcellulose) (HPC)) of the same molecule?
**A.** Its T/C is 99 % of control.

**Q.** And the T/C (dose: 7.5 mg/kg/injection, schedule: Q01DX005 (ip), vehicle: Klucel (hydroxypropylcellulose) (HPC))?
**A.** Its T/C is 100 % of control.

**Q.** What about the T/C (dose: 15.0 mg/kg/injection, schedule: Q01DX005 (ip), vehicle: Klucel (hydroxypropylcellulose) (HPC)) of the same molecule?
**A.** Its T/C is 100 % of control.

**Q.** And the T/C (dose: 30.0 mg/kg/injection, schedule: Q01DX005 (ip), vehicle: Klucel (hydroxypropylcellulose) (HPC))?
**A.** The T/C was 101 % of control.

**Q.** With CN=C(N)NN=C(c1ccc(Cl)cc1)c1ccc(Cl)cc1 as the molecule, how does the T/C (dose: 6.25 mg/kg/injection, schedule: Q04DX002 (ip), vehicle: saline with Tween-80) read?
**A.** The T/C was 101 % of control.

**Q.** What about the T/C (dose: 12.5 mg/kg/injection, schedule: Q04DX002 (ip), vehicle: saline with Tween-80) of the same molecule?
**A.** The T/C was 102 % of control.

**Q.** And the T/C (dose: 25.0 mg/kg/injection, schedule: Q04DX002 (ip), vehicle: saline with Tween-80)?
**A.** Its T/C is 158 % of control.

**Q.** Which T/C [1] does the source give for O=c1oc(-c2ccccc2)cc(N2CCCCC2)c1Cl here?
**A.** Its T/C is 97 % of control.

**Q.** And the T/C [2]?
**A.** Its T/C is 97 % of control.

**Q.** And the T/C (dose: 200.0 mg/kg/injection, schedule: Q01DX009 (ip), vehicle: saline with Tween-80)?
**A.** Its T/C is 97 % of control.

**Q.** What does the source list for S=c1sc2cccnc2s1?
**A.** T/C (dose: 12.5 mg/kg/injection, schedule: Q01DX009 (ip), vehicle: saline with Tween-80): 99 % of control; T/C (dose: 25.0 mg/kg/injection, schedule: Q01DX009 (ip), vehicle: saline with Tween-80): 100 % of control; T/C [1]: 104 % of control and 111 % of control

**Q.** For CN(C)c1ncnc2c1ccn2C1OC(CO)C(O)C1O (stereo not drawn), which T/C [8] is on record?
**A.** The T/C was 106 % of control.

**Q.** What about the T/C [9] of the same molecule?
**A.** The T/C was 109 % of control.

**Q.** What about the T/C [10] of the same molecule?
**A.** Its T/C is 117 % of control.

**Q.** How did the T/C (dose: 60.0 mg/kg/injection, schedule: Q01DX005 (ip), vehicle: Klucel (hydroxypropylcellulose) (HPC)) turn out when COc1ccc(-n2cnc3c(cnn3C)c2=O)cc1 was run?
**A.** Its T/C is 100 % of control.

**Q.** What about the T/C (dose: 120.0 mg/kg/injection, schedule: Q01DX005 (ip), vehicle: Klucel (hydroxypropylcellulose) (HPC)) of the same molecule?
**A.** Its T/C is 91 % of control.

**Q.** What does the source list for C[Si](C)(C)CN=P(c1ccccc1)(c1ccccc1)c1ccccc1?
**A.** T/C [5]: 102 % of control; T/C [6]: 103 % of control; T/C [7]: 105 % of control

**Q.** O=S(=O)(O)c1ccc(-c2nnc(-c3ccccn3)nc2-c2ccc(S(=O)(=O)O)o2)o1 was tested. Which T/C (dose: 60.0 mg/kg/injection, schedule: Q01DX005 (ip), vehicle: saline) did it give?
**A.** The T/C was 102 % of control.

**Q.** And the T/C (dose: 120.0 mg/kg/injection, schedule: Q01DX005 (ip), vehicle: saline)?
**A.** The T/C was 97 % of control.

**Q.** And the T/C (dose: 240.0 mg/kg/injection, schedule: Q01DX005 (ip), vehicle: saline)?
**A.** Its T/C is 102 % of control.
